Patent US7056893B2, “Topical treatment for prevention of ocular infections” (Insite Vision, Inc., priority 1999, dated 2006)

How the values were obtained:
[1] = format: physicochemical
Source text: Ophthalmic carrier(s) is used in a broad sense and includes any material or composition that can contain and release the azalide antibiotic and that is compatible with the eye. Typically the ophthalmically acceptable carrier is water or an aqueous solution or suspension, but also includes oils such as those used to make ointments and polymer matrices such as used in ocular inserts. […] The stabilized compositions of this invention advantageously employ the increased water solubility of the protonated form of the antibiotic that is compatible with the optimal pH range for azalide antibiotic stability. […] Accordingly, stabilized aqueous solution of an azalide antibiotic can be formed and used for topical application. Alternatively, aqueous compositions containing a portion of the azalide antibiotic in suspension may be employed for topical administration. Ointments and solid dosage forms can also be used as delivery compositions as are well known in the art. The concentration of azalide antibiotic present in the ophthalmic composition depends upon the dosage form, the release rate, the dosing regimen, and the location and type of infection. […]
The solubility of azithromycin is measured as a function of pH in 0.2 M citric acid buffer over the range of pH 5.91 to 9.0.

[2] = format: physicochemical; remark: listed apart in the source
Description: The thermal stability of azithromycin at 40° C. is measured in 50 mM phosphate buffer adjusted to the pH values indicated in FIG. 2. FIG. 3 is a secondary plot of data derived from the azithromycin stability profiles in FIG. 2. […] 6-6.5. A formulation pH of 6.3 is preferred to minimize degradation of azithromycin in aqueous formulations including those that employ DuraSite®.

| water solubility [1] | pH interval of maximum stability [2] | pH of stability maximum [2] | Compound |
| --- | --- | --- | --- |
| 200 to 250 mg/mL | – | – | CC[C@H]1OC(=O)[C@H](C)[C@@H](O[C@H]2C[C@@](C)(OC)[C@@H](O)[C@H](C)O2)[C@H](C)[C@@H](O[C@@H]2O[C@H](C)C[C@H](N(C)C)[C@H]2O)[C@](C)(O)C[C@@H](C)CN(C)[C@H](C)[C@@H](O)[C@]1(C)O.O.O [azithromycin dihydrate] |
| – | 5.0-7.0 | about 6.3 | CCC1OC(=O)C(C)C(OC2CC(C)(OC)C(O)C(C)O2)C(C)C(OC2OC(C)CC(N(C)C)C2O)C(C)(O)CC(C)CN(C)C(C)C(O)C1(C)O (stereo not drawn) [Azithromycin, N-methyl-11-aza-10-deoxo-10-dihydroerythromycin] |
